{
  "source": "patent US20060083714A1",
  "about": "“Combination of a pde iv inhibitor and a tnf-alpha antagonist” (priority 2003, published 2006)",
  "key": {"PDE I": {"tested_on": "PDE I", "settings": "reported in Hatzelmann et al., JPET 297(1):267-279 (2001); read-out: IC50 for roflumilast activity on PDE I; cited from earlier work"}, "PDE IV [1]": {"tested_on": "PDE IV", "experiment": "Inhibition of PDE isoenzymes: PDE IV (PDE4, cytosol of human neutrophils, cAMP substrate)", "format": "biochemical", "protocol": "PDE inhibition is then determined by the presence or absence of substrate degradation products. […] The relative ability of an inhibitory compound to slow or prevent the degradation of tritiated cyclic nucleotides is one test that is indicative of how well the compound in question selects one or more of each isoform to inhibit.\nIn practice, the in vitro selectivity of a PDE IV inhibitor may vary depending upon the condition under which the test is performed and on the inhibitors being tested. However, for the purposes of this specification, the selectivity of a PDE IV inhibitor can be measured as a ratio of the in vitro IC50 value for inhibition of any other isoform of the phosphodiesterase enzyme (Z) other than PDE IV, divided by the IC50 value for inhibition of PDE IV (PDE Z IC50/PDE IV IC50), where Z identifies any PDE other than PDE IV. As used herein, the term “IC50” refers to the concentration of a compound that is required to produce 50% inhibition of phosphodiesterase activity. […]\nAfter preincubation for 5 min at 37° C., the reaction isstarted by the addition of substrate (cAMP or cGMP) and the assays are incubated for further 15 min at 37° C. […] The columns are elutedwith 2 ml of 30 mM ammonium formate (pH 6.0) and the eluate is counted for radioactivity. Results are corrected for blank values (measured in the presence of denatured protein) that are below 5% of total radioactivity. […]"}, "PDE IV [2]": {"tested_on": "T1, PDE IV", "T1 construct": "other: reported in Hatzelmann et al., JPET 297(1):267-279 (2001)", "settings": "reported in Hatzelmann et al., JPET 297(1):267-279 (2001); read-out: IC50 for roflumilast activity on PDE IV; cited from earlier work"}},
  "note": "pIC50: −log10 of the molar value.",
  "data": [
    {"smiles": "O=C(Nc1c(Cl)cncc1Cl)c1ccc(OC(F)F)c(OCC2CC2)c1", "note": "[roflumilast, 3-(cyclopropylmethoxy)-N-(3,5-dichloropyridin-4-yl)-4-(difluoromethoxy) benzamide]", "values": [
      {"measurement": "pIC50", "setting": "PDE I", "value": "< 5.00"},
      {"measurement": "selectivity for PDE IV as compared with PDE V (PDE V IC50/PDE IV IC50)", "setting": "PDE IV [1]; 8/0.0008", "value": "at least 10,000"},
      {"measurement": "selectivity for PDE IV as compared with PDE I (PDE I IC50/PDE IV IC50)", "setting": "PDE IV [1]; >10/0.0008", "value": "at least 12,500"},
      {"measurement": "pIC50", "setting": "PDE IV [2]", "value": 9.10}
    ]}
  ]
}
